PMC9954146, “Anti-Leukaemic Activity of Rilpivirine Is Mediated by Aurora A Kinase Inhibition” (Cancers, 2023)

Legend:
Assay in all cases: Kinase panel
Format in all cases: biochemical
EGFR(T790M,L858R)(h) = target: T1, EGFR(T790M,L858R)(h) (Homo sapiens, UniProt P00533, L858R/T790M); details: read-out: % Residual Activity
T1 construct: purchased Eurofins (KinaseProfiler)
How it was run: (§1)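 For each panel kinase, rilpivirine inhibition is measured by radioactive phosphate transfer with ATP at that enzyme's Km, […].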

VRK1(h) = target: T2, VRK1(h) (Homo sapiens, UniProt Q99986); details: read-out: % Residual Activity
T2 construct: purchased Eurofins (KinaseProfiler)
How it was run: as §1

[1] = target: PI3 Kinase (p110b/p85a)(m) (Mus musculus, UniProt Q8BTI9); details: read-out: % Residual Activity
How it was run: as §1

ACK1(h) = target: T3, ACK1(h) (Homo sapiens, UniProt Q07912); details: read-out: % Residual Activity
T3 construct: purchased Eurofins (KinaseProfiler)
How it was run: as §1

NUAK2(h) = target: T4, NUAK2(h) (Homo sapiens, UniProt Q9H093); details: read-out: % Residual Activity
T4 construct: purchased Eurofins (KinaseProfiler)
How it was run: as §1

cKit(V560G)(h) = target: T5, cKit(V560G)(h) (Homo sapiens, UniProt P10721, V560G); details: read-out: % Residual Activity
T5 construct: purchased Eurofins (KinaseProfiler)
T5 sequence (P10721 26-976 V560G): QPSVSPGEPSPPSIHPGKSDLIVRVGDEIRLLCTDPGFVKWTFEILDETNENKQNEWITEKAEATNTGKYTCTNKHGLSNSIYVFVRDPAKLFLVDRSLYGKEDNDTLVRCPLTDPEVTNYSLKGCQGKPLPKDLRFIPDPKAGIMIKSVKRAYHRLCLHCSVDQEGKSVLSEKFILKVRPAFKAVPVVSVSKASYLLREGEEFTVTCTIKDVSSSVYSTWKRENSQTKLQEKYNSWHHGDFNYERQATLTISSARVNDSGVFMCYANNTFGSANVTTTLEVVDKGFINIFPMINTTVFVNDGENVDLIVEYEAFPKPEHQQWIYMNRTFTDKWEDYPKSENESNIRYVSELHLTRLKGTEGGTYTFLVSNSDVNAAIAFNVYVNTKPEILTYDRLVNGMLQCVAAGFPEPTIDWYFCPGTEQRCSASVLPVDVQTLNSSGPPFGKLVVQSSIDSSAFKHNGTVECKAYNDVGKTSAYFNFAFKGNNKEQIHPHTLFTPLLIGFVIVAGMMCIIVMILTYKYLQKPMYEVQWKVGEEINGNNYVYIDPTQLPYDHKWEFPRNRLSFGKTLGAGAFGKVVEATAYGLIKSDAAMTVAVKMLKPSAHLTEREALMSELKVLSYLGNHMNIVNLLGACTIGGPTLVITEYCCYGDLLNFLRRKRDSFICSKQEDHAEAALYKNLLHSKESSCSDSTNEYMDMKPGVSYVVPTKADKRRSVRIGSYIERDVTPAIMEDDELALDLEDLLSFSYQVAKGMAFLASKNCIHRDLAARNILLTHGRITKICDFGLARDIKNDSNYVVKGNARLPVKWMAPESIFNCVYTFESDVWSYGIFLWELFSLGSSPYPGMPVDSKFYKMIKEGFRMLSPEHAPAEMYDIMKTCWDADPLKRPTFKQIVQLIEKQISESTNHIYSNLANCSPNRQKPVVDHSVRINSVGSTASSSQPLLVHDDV
How it was run: as §1

FAK(h) = target: T6, FAK(h) (Homo sapiens, UniProt Q05397); details: read-out: % Residual Activity
T6 construct: purchased Eurofins (KinaseProfiler)
How it was run: as §1

TrkA(h) = target: T7, TrkA(h) (Homo sapiens, UniProt P04629); details: read-out: % Residual Activity
T7 construct: purchased Eurofins (KinaseProfiler)
T7 sequence (P04629 33-796): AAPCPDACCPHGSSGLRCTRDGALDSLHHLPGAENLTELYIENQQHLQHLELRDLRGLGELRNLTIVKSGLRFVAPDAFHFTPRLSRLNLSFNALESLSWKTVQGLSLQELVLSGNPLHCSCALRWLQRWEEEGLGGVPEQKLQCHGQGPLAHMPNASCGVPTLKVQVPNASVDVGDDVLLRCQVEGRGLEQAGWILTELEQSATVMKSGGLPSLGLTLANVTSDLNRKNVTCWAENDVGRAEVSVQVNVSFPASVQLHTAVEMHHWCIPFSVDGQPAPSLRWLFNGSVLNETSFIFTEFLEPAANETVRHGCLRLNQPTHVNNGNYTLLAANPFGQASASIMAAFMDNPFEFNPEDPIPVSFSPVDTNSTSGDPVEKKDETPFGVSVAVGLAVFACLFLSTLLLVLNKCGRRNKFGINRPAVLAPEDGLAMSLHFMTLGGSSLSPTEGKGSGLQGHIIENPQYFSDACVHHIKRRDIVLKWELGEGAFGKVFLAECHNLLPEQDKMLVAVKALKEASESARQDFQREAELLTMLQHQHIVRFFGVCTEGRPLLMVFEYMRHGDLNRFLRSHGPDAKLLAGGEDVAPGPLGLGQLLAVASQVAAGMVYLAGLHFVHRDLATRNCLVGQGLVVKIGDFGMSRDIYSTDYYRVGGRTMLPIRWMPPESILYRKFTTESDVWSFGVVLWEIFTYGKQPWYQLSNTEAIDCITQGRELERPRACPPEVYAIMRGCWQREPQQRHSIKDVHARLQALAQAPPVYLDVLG
How it was run: as §1

Fms(Y969C)(h) = target: T8, Fms(Y969C)(h) (Homo sapiens, UniProt P07333, Y969C); details: read-out: % Residual Activity
T8 construct: purchased Eurofins (KinaseProfiler)
How it was run: as §1

Yes(h) = target: T9, Yes(h) (Homo sapiens, UniProt P07947)
T9 construct: purchased Eurofins (KinaseProfiler)
T9 sequence (P07947 whole entry): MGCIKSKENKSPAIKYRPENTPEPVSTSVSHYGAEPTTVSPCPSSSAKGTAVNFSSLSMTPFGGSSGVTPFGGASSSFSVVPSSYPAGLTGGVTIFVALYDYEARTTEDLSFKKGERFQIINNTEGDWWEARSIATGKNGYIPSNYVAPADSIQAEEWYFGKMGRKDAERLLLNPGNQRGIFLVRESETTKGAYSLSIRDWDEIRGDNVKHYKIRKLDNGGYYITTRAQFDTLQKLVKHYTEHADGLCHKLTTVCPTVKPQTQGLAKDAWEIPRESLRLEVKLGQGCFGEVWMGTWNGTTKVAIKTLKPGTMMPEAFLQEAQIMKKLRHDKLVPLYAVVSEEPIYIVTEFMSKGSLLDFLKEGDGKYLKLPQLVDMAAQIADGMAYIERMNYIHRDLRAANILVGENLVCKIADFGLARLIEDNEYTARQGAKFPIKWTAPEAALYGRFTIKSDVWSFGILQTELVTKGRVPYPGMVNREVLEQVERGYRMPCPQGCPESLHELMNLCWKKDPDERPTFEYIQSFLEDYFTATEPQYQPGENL
How it was run: as §1

cKit(D816H)(h) = target: T10, cKit(D816H)(h) (Homo sapiens, UniProt P10721, D816H); details: read-out: % Residual Activity
T10 construct: purchased Eurofins (KinaseProfiler)
T10 sequence (P10721 26-976 D816H): as the sequence (P10721 26-976 V560G) above, with G535V, D791H counted along it
How it was run: as §1

MYLK2(h) = target: T11, MYLK2(h) (Homo sapiens, UniProt Q9H1R3); details: read-out: % Residual Activity
T11 construct: purchased Eurofins (KinaseProfiler)
How it was run: as §1

PKCβI(h) = target: T12, PKCβI(h) (Homo sapiens, UniProt P05771); details: read-out: % Residual Activity
T12 construct: purchased Eurofins (KinaseProfiler)
How it was run: as §1

ROCK-II(r) = target: T13, ROCK-II(r) (Rattus norvegicus, UniProt Q62868); details: read-out: % Residual Activity
T13 construct: purchased Eurofins (KinaseProfiler)
T13 sequence (Q62868 2-543 limits assumed): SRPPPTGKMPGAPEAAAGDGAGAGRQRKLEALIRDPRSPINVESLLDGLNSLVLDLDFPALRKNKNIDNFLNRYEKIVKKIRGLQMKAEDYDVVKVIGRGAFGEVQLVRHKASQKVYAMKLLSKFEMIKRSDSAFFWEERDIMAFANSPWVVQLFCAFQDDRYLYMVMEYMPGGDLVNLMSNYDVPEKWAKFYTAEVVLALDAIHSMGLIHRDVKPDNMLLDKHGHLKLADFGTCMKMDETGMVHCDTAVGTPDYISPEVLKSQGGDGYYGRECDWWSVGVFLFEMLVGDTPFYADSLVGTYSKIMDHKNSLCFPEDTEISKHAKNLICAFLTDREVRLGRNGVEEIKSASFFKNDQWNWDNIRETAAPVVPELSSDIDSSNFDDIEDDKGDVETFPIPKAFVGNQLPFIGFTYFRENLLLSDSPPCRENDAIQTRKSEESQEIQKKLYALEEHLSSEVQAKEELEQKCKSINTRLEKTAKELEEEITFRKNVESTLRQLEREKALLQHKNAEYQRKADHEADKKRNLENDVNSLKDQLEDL
How it was run: as §1

DYRK1B(h) = target: T14, DYRK1B(h) (Homo sapiens, UniProt Q9Y463); details: read-out: % Residual Activity
T14 construct: purchased Eurofins (KinaseProfiler)
How it was run: as §1

STK32A(h) = target: T15, STK32A(h) (Homo sapiens, UniProt Q8WU08); details: read-out: % Residual Activity
T15 construct: purchased Eurofins (KinaseProfiler)
How it was run: as §1

Ret (V804L)(h) = target: T16, Ret (V804L)(h) (Homo sapiens, UniProt P07949, V804L); details: read-out: % Residual Activity
T16 construct: purchased Eurofins (KinaseProfiler)
How it was run: as §1

TrkB(h) = target: T17, TrkB(h) (Homo sapiens, UniProt Q16620); details: read-out: % Residual Activity
T17 construct: purchased Eurofins (KinaseProfiler)
How it was run: as §1

[2] = target: PI3 Kinase (p110a(H1047R)/p85a)(m) (Mus musculus, UniProt P42337, H1047R); details: read-out: % Residual Activity
How it was run: as §1

GRK6(h) = target: T18, GRK6(h) (Homo sapiens, UniProt P43250); details: read-out: % Residual Activity
T18 construct: purchased Eurofins (KinaseProfiler)
T18 sequence (P43250 whole entry): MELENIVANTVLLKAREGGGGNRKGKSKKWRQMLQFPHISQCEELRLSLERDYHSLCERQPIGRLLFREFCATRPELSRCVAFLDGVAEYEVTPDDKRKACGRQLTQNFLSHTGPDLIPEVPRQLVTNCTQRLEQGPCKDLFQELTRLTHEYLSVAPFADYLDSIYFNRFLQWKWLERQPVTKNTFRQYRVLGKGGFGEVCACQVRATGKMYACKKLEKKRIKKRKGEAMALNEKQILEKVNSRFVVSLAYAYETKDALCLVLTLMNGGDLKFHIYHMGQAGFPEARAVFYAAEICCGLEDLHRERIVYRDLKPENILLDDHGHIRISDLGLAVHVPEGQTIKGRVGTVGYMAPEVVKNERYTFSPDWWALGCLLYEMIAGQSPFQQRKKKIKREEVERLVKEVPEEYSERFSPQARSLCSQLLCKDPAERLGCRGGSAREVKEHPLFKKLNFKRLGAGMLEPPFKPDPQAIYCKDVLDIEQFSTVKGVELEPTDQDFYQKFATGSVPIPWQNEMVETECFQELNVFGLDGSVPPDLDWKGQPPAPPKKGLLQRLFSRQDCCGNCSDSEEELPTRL
How it was run: as §1

MARK1(h) = target: T19, MARK1(h) (Homo sapiens, UniProt Q9P0L2); details: read-out: % Residual Activity
T19 construct: purchased Eurofins (KinaseProfiler)
How it was run: as §1

ARK5(h) = target: T20, ARK5(h) (Homo sapiens, UniProt O60285); details: read-out: % Residual Activity
T20 construct: purchased Eurofins (KinaseProfiler)
How it was run: as §1

LIMK2(h) = target: T21, LIMK2(h) (Homo sapiens, UniProt P53671); details: read-out: % Residual Activity
T21 construct: purchased Eurofins (KinaseProfiler)
T21 sequence (P53671 whole entry): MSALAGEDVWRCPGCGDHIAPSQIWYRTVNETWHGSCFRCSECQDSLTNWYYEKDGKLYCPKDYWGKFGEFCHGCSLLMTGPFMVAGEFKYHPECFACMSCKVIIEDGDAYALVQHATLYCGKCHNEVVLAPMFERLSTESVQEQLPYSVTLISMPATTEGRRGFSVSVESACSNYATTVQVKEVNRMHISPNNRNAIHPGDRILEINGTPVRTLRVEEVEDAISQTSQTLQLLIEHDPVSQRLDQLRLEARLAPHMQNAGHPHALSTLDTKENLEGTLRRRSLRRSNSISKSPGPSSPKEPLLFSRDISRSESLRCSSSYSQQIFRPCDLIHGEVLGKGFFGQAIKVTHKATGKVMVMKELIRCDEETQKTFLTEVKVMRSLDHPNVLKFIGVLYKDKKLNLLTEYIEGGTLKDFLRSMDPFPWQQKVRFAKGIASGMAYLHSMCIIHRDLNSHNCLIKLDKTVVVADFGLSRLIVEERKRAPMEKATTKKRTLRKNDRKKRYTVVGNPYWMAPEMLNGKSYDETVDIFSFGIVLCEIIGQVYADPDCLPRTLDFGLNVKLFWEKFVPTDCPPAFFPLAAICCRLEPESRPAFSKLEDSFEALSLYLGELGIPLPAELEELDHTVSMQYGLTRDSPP
How it was run: as §1

PDGFRα(V561D)(h) = target: T22, PDGFRα(V561D)(h) (Homo sapiens, UniProt P16234, V561D); details: read-out: % Residual Activity
T22 construct: purchased Eurofins (KinaseProfiler)
How it was run: as §1

SAPK4(h) = target: T23, SAPK4(h) (Homo sapiens, UniProt O15264); details: read-out: % Residual Activity
T23 construct: purchased Eurofins (KinaseProfiler)
How it was run: as §1

MLK2(h) = target: T24, MLK2(h) (Homo sapiens, UniProt Q02779); details: read-out: % Residual Activity
T24 construct: purchased Eurofins (KinaseProfiler)
How it was run: as §1

CLIK1(h) = target: T25, CLIK1(h) (Homo sapiens, UniProt Q8TDR2); details: read-out: % Residual Activity
T25 construct: purchased Eurofins (KinaseProfiler)
T25 sequence (Q8TDR2 whole entry): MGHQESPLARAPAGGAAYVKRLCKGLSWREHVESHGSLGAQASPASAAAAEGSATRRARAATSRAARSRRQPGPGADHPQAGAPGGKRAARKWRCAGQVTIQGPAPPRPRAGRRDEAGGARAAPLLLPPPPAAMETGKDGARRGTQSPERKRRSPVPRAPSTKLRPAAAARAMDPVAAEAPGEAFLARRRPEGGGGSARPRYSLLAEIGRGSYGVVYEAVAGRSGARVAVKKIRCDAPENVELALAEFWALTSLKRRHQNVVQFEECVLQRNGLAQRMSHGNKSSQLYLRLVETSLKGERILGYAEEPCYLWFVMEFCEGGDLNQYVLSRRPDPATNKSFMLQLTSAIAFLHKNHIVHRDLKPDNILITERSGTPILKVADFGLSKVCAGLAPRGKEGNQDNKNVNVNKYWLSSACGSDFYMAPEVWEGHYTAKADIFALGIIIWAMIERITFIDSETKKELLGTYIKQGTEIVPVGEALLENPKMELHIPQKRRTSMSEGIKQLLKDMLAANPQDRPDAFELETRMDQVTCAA
How it was run: as §1

CaMKIß(h) = target: T26, CaMKIß(h) (Homo sapiens, UniProt Q6P2M8); details: read-out: % Residual Activity
T26 construct: purchased Eurofins (KinaseProfiler)
How it was run: as §1

DCAMKL3(h) = target: T27, DCAMKL3(h) (Homo sapiens, UniProt Q9C098); details: read-out: % Residual Activity
T27 construct: purchased Eurofins (KinaseProfiler)
How it was run: as §1

Rsk1(h) = target: T28, Rsk1(h) (Homo sapiens, UniProt Q15418); details: read-out: % Residual Activity
T28 construct: purchased Eurofins (KinaseProfiler)
How it was run: as §1

PrKX(h) = target: T29, PrKX(h) (Homo sapiens, UniProt P51817); details: read-out: % Residual Activity
T29 construct: purchased Eurofins (KinaseProfiler)
How it was run: as §1

CaMKI(h) = target: T30, CaMKI(h) (Homo sapiens, UniProt Q14012); details: read-out: % Residual Activity
T30 construct: purchased Eurofins (KinaseProfiler)
T30 sequence (Q14012 whole entry): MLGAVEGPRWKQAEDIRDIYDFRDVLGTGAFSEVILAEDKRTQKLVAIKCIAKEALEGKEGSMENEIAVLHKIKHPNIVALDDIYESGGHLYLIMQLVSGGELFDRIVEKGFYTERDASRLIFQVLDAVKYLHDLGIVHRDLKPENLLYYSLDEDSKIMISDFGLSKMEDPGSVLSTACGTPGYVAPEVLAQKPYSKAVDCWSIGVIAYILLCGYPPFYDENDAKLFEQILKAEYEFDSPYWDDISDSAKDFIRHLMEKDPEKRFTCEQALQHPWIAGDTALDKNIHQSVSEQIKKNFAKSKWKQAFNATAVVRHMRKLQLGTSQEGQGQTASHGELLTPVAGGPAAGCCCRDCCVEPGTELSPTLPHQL
How it was run: as §1

PKCβII(h) = target: T31, PKCβII(h) (Homo sapiens, UniProt P05771); details: read-out: % Residual Activity
T31 construct: purchased Eurofins (KinaseProfiler)
How it was run: as §1

ALK4(h) = target: T32, ALK4(h) (Homo sapiens, UniProt P36896); details: read-out: % Residual Activity
T32 construct: purchased Eurofins (KinaseProfiler)
How it was run: as §1

DCAMKL2(h) = target: T33, DCAMKL2(h) (Homo sapiens, UniProt Q8N568); details: read-out: % Residual Activity
T33 construct: purchased Eurofins (KinaseProfiler)
How it was run: as §1

PKCμ(h) = target: T34, PKCμ(h) (Homo sapiens, UniProt Q15139); details: read-out: % Residual Activity
T34 construct: purchased Eurofins (KinaseProfiler)
How it was run: as §1

CDK7/cyclinH/MAT1(h) = target: T35, CDK7/cyclinH/MAT1(h) (Homo sapiens, UniProt P50613); details: read-out: % Residual Activity
T35 construct: purchased Eurofins (KinaseProfiler)
How it was run: as §1

In the case of `Cc1cc(/C=C/C#N)cc(C)c1Nc1ccnc(Nc2ccc(C#N)cc2)n1` [rilpivirine, (E)-4-((4-((4-(2-cyanoethenyl)-2,6-dimethylphenyl)amino)pyrimidin-2-yl)amino)benzonitrile], the remaining activity at 1 µM (EGFR(T790M,L858R)(h)) is reported as 88%, the remaining activity at 1 µM (VRK1(h)) is reported as 80% and the remaining activity at 1 µM [1] is reported as 98%. It also gave a remaining activity at 1 µM (ACK1(h)) of 97%, a remaining activity at 1 µM (NUAK2(h)) of 101% and a remaining activity at 1 µM (cKit(V560G)(h)) of 74%. The remaining activity at 1 µM (FAK(h)) was 86%, the remaining activity at 1 µM (TrkA(h)) was 101% and the remaining activity at 1 µM (Fms(Y969C)(h)) was 83%. It also gave an inhibition at 1 µM (Yes(h); YES, read-out: inhibitory activity) of over 70%, a remaining activity at 1 µM (Yes(h); read-out: % Residual Activity) of 17% and a remaining activity at 1 µM (cKit(D816H)(h)) of 89%. It also gave a remaining activity at 1 µM (MYLK2(h)) of 79%, a remaining activity at 1 µM (PKCβI(h)) of 89% and a remaining activity at 1 µM (ROCK-II(r)) of 94%. For the same molecule, the remaining activity at 1 µM (DYRK1B(h)) was 72%, the remaining activity at 1 µM (STK32A(h)) was 89% and the remaining activity at 1 µM (Ret (V804L)(h)) was 91%. The remaining activity at 1 µM (TrkB(h)) was 72%, the remaining activity at 1 µM [2] was 96% and the remaining activity at 1 µM (GRK6(h)) was 97%. It also gave a remaining activity at 1 µM (MARK1(h)) of 82%, a remaining activity at 1 µM (ARK5(h)) of 82% and a remaining activity at 1 µM (LIMK2(h)) of 71%. For the same molecule, the remaining activity at 1 µM (PDGFRα(V561D)(h)) was 86%, the remaining activity at 1 µM (SAPK4(h)) was 97% and the remaining activity at 1 µM (MLK2(h)) was 85%. For the same molecule, the remaining activity at 1 µM (CLIK1(h)) was 85%, the remaining activity at 1 µM (CaMKIß(h)) was 92% and the remaining activity at 1 µM (DCAMKL3(h)) was 95%. The remaining activity at 1 µM (Rsk1(h)) was 91%, the remaining activity at 1 µM (PrKX(h)) was 97% and the remaining activity at 1 µM (CaMKI(h)) was 92%. The remaining activity at 1 µM (PKCβII(h)) was 94%, the remaining activity at 1 µM (ALK4(h)) was 79% and the remaining activity at 1 µM (DCAMKL2(h)) was 122%. The remaining activity at 1 µM (PKCμ(h)) was 98% and the remaining activity at 1 µM (CDK7/cyclinH/MAT1(h)) was 78%.
